This passage reports IC50 results from US11046709B2, “Fused 1,4-diazepines as BET bromodomain inhibitors” (THE REGENTS OF THE UNIVERSITY OF MICHIGAN, priority 2017, dated 2021).

For one experiment, the target named is T1, recombinant BRD4 BD2 (Homo sapiens, UniProt O60885).
T1 construct: for recombinant BRD4 BD1 and BRD4 BD2 proteins
In words: Competitive fluorescence-polarization (FP) binding assay, BRD4 BD2. Here is the method:
Fluorescence Polarization (FP) competitive binding studies were carried out using a FAM labeled fluorescent probe, see, e.g., Cpd. No. 350 of US 2014/0256706, to determine binding affinities of representative Compounds of the Disclosure for recombinant BRD4 BD1 and BRD4 BD2 proteins. Equilibrium dissociation constants (Kd) values of the fluorescent probe to BRD4 BD1 and BD2 proteins were determined from protein saturation experiments by monitoring the total fluorescence polarization of mixtures composed with the fluorescent probe at a fixed concentration and proteins with increasing concentrations up to full saturation. Serial dilutions of testing proteins were mixed with the fluorescent probe to a final volume of 200 μl in the assay buffer (100 mM phosphate buffer, pH=6.5, 0.01% Triton X-100 (Sigma, 282103) being added right before assays). Final fluorescent probe concentration was 1.5 nM for both proteins. Plates were incubated at room temperature for 30 minutes with gentle shaking to assure equilibrium. FP values in millipolarization units (mP) were measured using the Infinite M-1000 plate reader (Tecan U.S., Research Triangle Park, N.C.) in Microfluor 1 96-well, black, round-bottom plates (Thermo Scientific, Waltham, Mass.) at an excitation wavelength of 485 nm and an emission wavelength of 530 nm. Kd values of the fluorescent probe, which were calculated by fitting the sigmoidal dose-dependent FP increases as a function of protein concentrations using Graphpad Prism 6.0 software (Graphpad Software, San Diego, Calif.), are 5.5 and 3.0 nM to BDR4 BD1 and 2, respectively.
The IC50 and Ki values of compounds were determined in a competitive binding experiment. See US 2014/0256706. Mixtures of 10 μl of the tested compounds in assay buffer with 40% Ethylene Glycol and 190 μl of preincubated protein/probe complex solution in the assay buffer (100 mM potassium phosphate, pH 6.5, 0.01% Triton X-100) were added into assay plates which were incubated at room temperature for 30 minutes with gentle shaking. Final concentrations of proteins were 10 and 6 nM in assays for BRD4 BD1 and BD2, respectively. Final probe concentration is 1.5 nM in both assays. Negative controls containing protein/probe complex only (equivalent to 0% inhibition), and positive controls containing only free probes (equivalent to 100% inhibition), were included in each assay plate. FP values were measured as described above. IC50 values were determined by nonlinear regression fitting of the competition curves. Instead of being calculated from IC50 values as described before. Ki values of competitive inhibitors were obtained directly by nonlinear regression fitting as well, based upon the Kd values of the probe to different proteins, and concentrations of the proteins and probes in the competitive assays (US 2014/0256706; Wang, FEBS Lett. 360:111 (1995); Zhang et al., Analytical Biochemistry, 331:138 (2004)).
Representative compounds in Table 5 were evaluated for their binding affinities to BRD4 BD1 and BD2 proteins using the Competitive Fluorescence-Polarization (FP) Assays described in Example 6, with the data included in Table 6.

For a further experiment, the system named is MOLM-13. The experiment in a line: Cell growth inhibition, 4-day proliferation assay, MOLM-13. The note with it: Homo sapiens, MOLM-13, 96 h, read-out: Cell IC50 (nM) MOLM13. Type of experiment: cell-based. Here is the method:
(§1) The effect of representative Compounds of the Disclosure on cell viability was determined in a 4-day proliferation assay. Cells were maintained in the appropriate culture medium with 100/0 FBS at 37° C. and an atmosphere of 5% CO2. All the cell lines were used within three months of thawing fresh vials.
(§2) In general, cells were seeded in 96-well flat bottom (Corning COSTAR, Corning, N.Y., cat #3595) or white opaque cell culture plates (BD Falcon, cat #353296) at a density of 3,000-10,000 cells/well in 75 μl of culture medium. Compounds were serially diluted in the appropriate medium, and 75 μl of the diluted compounds were added to the appropriate wells of the cell plate. After the addition of compounds, the cells were incubated at 37° C. in an atmosphere of 5% CO2 for 4 days. Cell viability was determined using the CellTiter-Glo® Luminescent Cell Viability Assay Kit (Promega, Madison, Wis.) for leukemia cells and WST (2-(2-methoxy-4-nitrophenyl)-3-(4-nitrophenyl)-5-(2,4-disulfophenyl)-2H-tetrazolium, monosodium salt) Cell Counting-8 Kit (Dojindo Molecular Technologies, Inc., Rockville, Md.) for adherent cells according to the manufacturers' instructions.
(§3) For WST assay (adherent cells), WST-8 reagent was added to each well at a final concentration of 10% (v/v), and then the plates were incubated at 37° C. for 1-2 hours for color development. The absorbance was measured at 450 nm using a SPECTRAmax PLUS plate reader (Molecular Devices, Sunnyvale, Calif.). The readings were normalized to the DMSO-treated cells and the half maximal inhibitory concentration (IC50) was calculated by nonlinear regression (four parameters sigmoid fitted with variable slope, least squares fit, and no constraint) analysis using the GraphPad Prism 5 software (GraphPad Software, La Jolla, Calif.).
(§4) For CellTiter-Glo assay (suspension cells), 100 μl of CellTiter-Glo® Reagent was added to each well, and then the plates were incubated at room temperature for 10-20 minutes. The luminescent signal was measured using a Tecan Infinite M1000 multimode microplate reader (Tecan, Morrisville, N.C.). The readings were normalized to the DMSO-treated cells and the IC50 was calculated by nonlinear regression (four parameters sigmoid fitted with variable slope, least squares fit, and no constraint) analysis using the GraphPad Prism 5 software. See US 2014/0256706.
(§5) For a number of representative compounds in Table 5, their IC50 values in cell growth inhibition activity in the RS4;11 and MOLM-13 human leukemia cell lines and the MDA-MB-231 breast cancer cell line were evaluated using the WST-8 assay described in EXAMPLE 7, with the data shown in Table 7.

A further experiment relates to MDA-MB-231. In words: Cell growth inhibition, 4-day proliferation assay, MDA-MB-231. Type of experiment: cell-based. The note with it: Homo sapiens, MDA-MB-231, 96 h, read-out: Cell IC50 (nM) MDA-MB-231. Here is the method: as §1, §2, §3, §4, §5
Setting [1] is: 4-day proliferation assay, Table 4.

Each structure is given as a SMILES string. Like-named read-outs stand apart in the source and are kept apart here. Some results are limits rather than exact numbers.

As to `Cc1c(C#Cc2ccccn2)sc2c1C(c1ccc(Cl)cc1)=NCc1nnc(C)n1-2` [Cpd. No. 1, 4-(4-chlorophenyl)-3,9-dimethyl-2-(pyridin-2-ylethynyl)-6H-thieno[3,2-f][1,2,4]triazolo[4,3-a][1,4]diazepine], the results for the IC50 on recombinant BRD4 BD2, with MOLM-13 and with MDA-MB-231 were 178 nM, 206 ± 21.9 nM and 272 nM, respectively.

In the case of `Cc1c(C#Cc2ccccn2)sc2c1C(c1ccc(Cl)cc1)=N[C@@H](C)c1nnc(C)n1-2` [Cpd. No. 2, (S)-4-(4-chlorophenyl)-3,6,9-trimethyl-2-(pyridin-2-ylethynyl)-6H-thieno[3,2-f][1,2,4]triazolo[4,3-a][1,4]diazepine], the IC50 on recombinant BRD4 BD2 is 14.5 nM; in the experiment on MOLM-13 it was 15.7 ± 0.43 nM; in the experiment with MDA-MB-231 it was 31 nM.

In the case of `Cc1c(C#Cc2cccnc2)sc2c1C(c1ccc(Cl)cc1)=NCc1nnc(C)n1-2` [Cpd. No. 3, 4-(4-chlorophenyl)-3,9-dimethyl-2-(pyridin-3-ylethynyl)-6H-thieno[3,2-f][1,2,4]triazolo[4,3-a][1,4]diazepine], the IC50 at recombinant BRD4 BD2 was determined as 124 nM; in the experiment with MOLM-13, 145 ± 13.7 nM; in the experiment with MDA-MB-231, 151 ± 19 nM.

As for `Cc1c(C#Cc2cccnc2)sc2c1C(c1ccc(Cl)cc1)=N[C@@H](C)c1nnc(C)n1-2` [Cpd. No. 4, (S)-4-(4-chlorophenyl)-3,6,9-trimethyl-2-(pyridin-3-ylethynyl)-6H-thieno[3,2-f][1,2,4]triazolo[4,3-a][1,4]diazepine], the half-maximal inhibitory concentration (IC50) is 12.5 nM on recombinant BRD4 BD2, 10.5 ± 0.24 nM in the experiment with MOLM-13 and 2.63 ± 0.6 nM with MDA-MB-231.

With `Cc1c(C#Cc2cncnc2)sc2c1C(c1ccc(Cl)cc1)=NCc1nnc(C)n1-2` [Cpd. No. 5, 4-(4-chlorophenyl)-3,9-dimethyl-2-(pyrimidin-5-ylethynyl)-6H-thieno[3,2-f][1,2,4]triazolo[4,3-a][1,4]diazepine], the IC50 stood at 305 nM on recombinant BRD4 BD2, 176 ± 25.5 nM with MOLM-13 and 214 ± 35.2 nM in the experiment on MDA-MB-231.

For `Cc1c(C#Cc2cncnc2)sc2c1C(c1ccc(Cl)cc1)=N[C@@H](C)c1nnc(C)n1-2` [Cpd. No. 6, (S)-4-(4-chlorophenyl)-3,6,9-trimethyl-2-(pyrimidin-5-ylethynyl)-6H-thieno[3,2-f][1,2,4]triazolo[4,3-a][1,4]diazepine], the values for the IC50 on recombinant BRD4 BD2, in the experiment on MOLM-13 and in the experiment on MDA-MB-231 were 16 nM, 15.6 ± 1.7 nM and 17.8 ± 19 nM, respectively.

With `Cc1c(C#Cc2ccncc2)sc2c1C(c1ccc(Cl)cc1)=NCc1nnc(C)n1-2` [Cpd. No. 7, 4-(4-chlorophenyl)-3,9-dimethyl-2-(pyridin-4-ylethynyl)-6H-thieno[3,2-f][1,2,4]triazolo[4,3-a][1,4]diazepine], the IC50 on recombinant BRD4 BD2 came out at 1670 nM; with MOLM-13, 144 ± 16.3 nM; with MDA-MB-231, 660 ± 83.6 nM.

Turning to `Cc1c(C#Cc2ccncc2)sc2c1C(c1ccc(Cl)cc1)=N[C@@H](C)c1nnc(C)n1-2` [Cpd. No. 8, (S)-4-(4-chlorophenyl)-3,6,9-trimethyl-2-(pyridin-4-ylethynyl)-6H-thieno[3,2-f][1,2,4]triazolo[4,3-a][1,4]diazepine], the figures for the half-inhibitory concentration (IC50) on recombinant BRD4 BD2, in the experiment with MOLM-13 and with MDA-MB-231 were 10.4 nM, 13.5 ± 0.8 nM and 64.5 ± 22.7 nM, respectively.

On to `Cc1c(C#CCO)sc2c1C(c1ccc(Cl)cc1)=NCc1nnc(C)n1-2` [Cpd. No. 9, 3-(4-(4-chlorophenyl)-3,9-dimethyl-6H-thieno[3,2-f][1,2,4]triazolo[4,3-a][1,4]diazepin-2-yl)prop-2-yn-1-ol], for which the IC50 at recombinant BRD4 BD2 came out at 126 nM; in the experiment on MOLM-13, 215 nM; with MDA-MB-231, 412 nM.

Take `Cc1c(C#CCO)sc2c1C(c1ccc(Cl)cc1)=N[C@@H](C)c1nnc(C)n1-2` [Cpd. No. 10, (S)-3-(4-(4-chlorophenyl)-3,6,9-trimethyl-6H-thieno[3,2-f][1,2,4]triazolo[4,3-a][1,4]diazepin-2-yl)prop-2-yn-1-ol]: the half-maximal inhibitory concentration (IC50) on recombinant BRD4 BD2 is 11.8 nM; with MOLM-13, 30.5 nM; in the experiment on MDA-MB-231, 31.8 nM.

As for `Cc1c(C#CCCCO)sc2c1C(c1ccc(Cl)cc1)=N[C@@H](C)c1nnc(C)n1-2` [Cpd. No. 11, (S)-5-(4-(4-chlorophenyl)-3,6,9-trimethyl-6H-thieno[3,2-f][1,2,4]triazolo[4,3-a][1,4]diazepin-2-yl)pent-4-yn-1-ol], the IC50 at recombinant BRD4 BD2 is 7.22 nM; in the experiment on MOLM-13, 6.87 nM; with MDA-MB-231 it was less than 1.7 nM.

With `Cc1c(C#Cc2cnn(CCCO)c2)sc2c1C(c1ccc(Cl)cc1)=N[C@@H](C)c1nnc(C)n1-2` [Cpd. No. 12, (S)-3-(4-((4-(4-chlorophenyl)-3,6,9-trimethyl-6H-thieno[3,2-f][1,2,4]triazolo[4,3-a][1,4]diazepin-2-yl)ethynyl)-1H-pyrazol-1-yl)propan-1-ol], the values for the IC50 at recombinant BRD4 BD2, in the experiment on MOLM-13 and in the experiment on MDA-MB-231 were 10.8 nM, 3.74 nM and 31.5 nM, respectively.

In the case of `Cc1c(C#Cc2ccc(CCCCO)cn2)sc2c1C(c1ccc(Cl)cc1)=N[C@@H](C)c1nnc(C)n1-2` [Cpd. No. 13], the IC50 came out at 11.1 nM on recombinant BRD4 BD2 (competitive FP, Table 3, read-out: Binding Affinity BRD4-BD2 IC50); 23 nM with MOLM-13 (setting [1]); 84.4 nM with MDA-MB-231 (setting [1]).

For the molecule `Cc1c(C#Cc2cnn(CC(=O)O)c2)sc2c1C(c1ccc(Cl)cc1)=N[C@@H](C)c1nnc(C)n1-2` [Cpd. No. 14, (S)-2-(4-((4-(4-chlorophenyl)-3,6,9-trimethyl-6H-thieno[3,2-f][1,2,4]triazolo[4,3-a][1,4]diazepin-2-yl)ethynyl)-1H-pyrazol-1-yl)acetic acid], the values for the IC50 at recombinant BRD4 BD2, with MOLM-13 and in the experiment on MDA-MB-231 were 12.3 nM, 964 nM and 965 nM, respectively.

On to `COc1ccc(C#Cc2sc3c(c2C)C(c2ccc(Cl)cc2)=N[C@@H](C)c2nnc(C)n2-3)nc1` [Cpd. No. 36, (S)-4-(4-chlorophenyl)-2-((5-methoxypyridin-2-yl)ethynyl)-3,6,9-trimethyl-6H-thieno[3,2-f][1,2,4]triazolo[4,3-a][1,4]diazepine], for which the IC50 on recombinant BRD4 BD2 was determined as 11.7 nM.

What is called IC50 is the point on the concentration scale where inhibition reaches its midpoint.
